Measured values published in PubChem BioAssay (NCI).
Values joined by “and” are separate entries in the source; they are usually repeats but may differ in a detail not shown here. Equal entries are not always repeated.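 Growth conditions: 96-well plates. Treatment: test compound, 48 hours, 5 concentrations. Analysis: linear interpolation between bracketing concentrations; unreached endpoints set to highest concentration. Here, GI50 denotes the concentration required for 50% inhibition of growth. Definition used: TGI = concentration required for complete inhibition of growth.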

How the values were obtained:
Test in all cases: NCI tumour cell line growth inhibition, 48 h
ACHN renal = system: ACHN renal
DU-145 prostate = system: DU-145 prostate
MDA-MB-435 = system: MDA-MB-435
MDA-N = system: MDA-N
MOLT-4 leukemia = system: MOLT-4 leukemia
NCI/ADR-RES ovarian = system: NCI/ADR-RES ovarian
OVCAR-8 ovarian = system: OVCAR-8 ovarian
SK-OV-3 ovarian = system: SK-OV-3 ovarian
TK-10 renal = system: TK-10 renal

SMILES | TGI (ACHN renal) [µM] | TGI (DU-145 prostate) [µM] | TGI (MDA-MB-435) [µM] | TGI (MDA-N) [µM] | TGI (MOLT-4 leukemia) | TGI (NCI/ADR-RES ovarian) [µM] | TGI (OVCAR-8 ovarian) | TGI (SK-OV-3 ovarian) [µM] | TGI (TK-10 renal) [µM] | GI50 (DU-145 prostate) [µM] | GI50 (MDA-MB-435) [µM] | GI50 (MOLT-4 leukemia) [µM] | GI50 (NCI/ADR-RES ovarian) [µM] | GI50 (OVCAR-8 ovarian) [µM] | GI50 (SK-OV-3 ovarian) [µM] | GI50 (TK-10 renal) [µM] | GI50 (ACHN renal) [µM]
COC(=O)C1C2C=CC(C2)N1S(=O)(=O)c1ccccc1 (configuration not stated) | > 100 | > 100 | > 100 | > 100 | > 100 µM | > 100 | > 100 µM | > 100 | > 100 |  |  |  |  |  |  |  | 
OCC1OC(n2nc(-c3ccccc3)nc2-c2cnccn2)C(O)C1O (configuration not stated) |  | > 100 | > 100 | > 100 | > 100 µM | > 100 | > 100 µM | > 100 | > 100 |  |  |  |  |  |  |  | 
C#CCOC(=O)C(N)CSSCC(N)C(=O)O (configuration not stated) | > 100 | > 100 | > 100 | > 100 | > 100 µM | > 100 | > 100 µM |  | > 100 |  |  |  |  |  |  |  | 
COC(=NCCC1=CCCCC1)OC | > 100 | > 100 | > 100 | > 100 | > 100 µM | > 100 | > 100 µM | > 100 | > 100 |  |  |  |  |  |  |  | 
CC(=O)NCCc1c[nH]c2ccc(Cl)cc12 | > 100 | > 100 | > 100 | > 100 | > 100 µM | > 100 | > 100 µM | > 100 | > 100 |  |  |  |  |  |  |  | 
Cc1nc2ccccc2c(=O)n1NC(=O)c1ccccc1O | > 100 | > 100 | > 100 | > 100 | > 100 µM |  | > 100 µM | > 100 | > 100 |  |  |  |  |  |  |  | 
CC1=CCC[C@@H]2[C@@](C)(Cc3cc(O)ccc3O)[C@H](C)CC[C@@]12C | 18 | 27.1 | 19.5 | 17 | 15 µM | 18.9 | 16.7 µM | 26 | 22.2 |  |  |  |  |  |  |  | 
O=C1NC(=O)C(C(c2ccc(Cl)cc2)C2C(=O)NC(=O)NC2=O)C(=O)N1 | > 100 | > 100 | > 100 | > 100 | > 100 µM | > 100 | > 100 µM |  | > 100 |  |  |  |  |  |  |  | 
COc1cc2c3c(n(CCN(C)C)c(=O)c2cc1OC)-c1cc2c(cc1C3=O)OCO2 | > 100 | > 22.5 | > 77 |  |  | > 40 | > 100 µM | > 100 | > 100 | 0.218 | 6.08 | < 0.0491 | 0.315 | 1.4 | > 29 | 46.2 | 
Oc1c(-c2ccccc2)sc2ccccc12 | > 100 | 59.5 | > 100 |  | 88.6 µM | > 100 | > 100 µM |  | > 100 |  |  |  |  |  |  |  | 
CN1CCN(C(=S)N(C(=O)c2ccco2)c2ccccc2)CC1 | > 100 | > 100 | > 100 | > 100 | > 100 µM |  | > 100 µM |  | > 100 |  |  |  |  |  |  |  | 
O=C(N/N=C1/C(=O)c2c3ccccc3cc3cccc1c23)c1cccc(Cl)c1 | > 100 | > 100 | > 100 | > 100 | > 100 µM | > 100 | > 100 µM | > 100 |  |  |  |  |  |  |  |  | 
CC(C)CC(=O)NC(NC(C)C)(C(F)(F)F)C(F)(F)F | > 100 | > 100 | > 100 | > 100 | > 100 µM | > 100 | > 100 µM |  | > 100 |  |  |  |  |  |  |  | 
Nc1nc(NNc2ccc(Cl)c(Cl)c2)cc(=O)[nH]1 | > 100 | > 100 | 74.1 | > 100 | 90.3 µM | > 100 | > 100 µM |  | > 100 |  |  |  |  |  |  |  | 
O=P1(Oc2ccc(Cl)cc2)OCCS1 (configuration not stated) | > 100 | > 100 |  | > 100 |  | > 100 | > 100 µM | > 100 | > 100 |  |  |  |  |  |  |  | 
Cc1cc2c(cc1C)[n+](=O)c(N1CCN(c3ccc([N+](=O)[O-])cc3)CC1)c(C#N)n2[O-] | 50.8 | > 100 | > 100 | > 100 |  | > 100 | 49.8 µM | 30.9 | 35.3 |  |  |  |  |  |  |  | 
CN(C)CC(CO)(CN(C)C)CN(C)C | > 100 | > 100 |  | > 100 | > 100 µM | > 100 | > 100 µM | > 100 | > 100 |  |  |  |  |  |  |  | 
O=c1cc(CC(O)(C(F)(F)Cl)C(F)(F)Cl)[nH]n1-c1ccccc1 | > 100 | > 100 | > 100 |  | > 100 µM | > 100 | > 100 µM | > 100 | > 100 |  |  |  |  |  |  |  | 
CN1CCN(Cc2ccc(NC(=O)c3ccc(C#N)c(C#Cc4cnc(N)c5ncccc45)c3)cc2C(F)(F)F)CC1 | 3.15 |  |  |  | 8.04 µM |  |  | 44.6 |  |  |  | 1.82 |  |  | 19.3 |  | 1.69
CCOc1ccc(/C=C/[N+](=O)[O-])cc1 | 24.3 | 22.2 | 13.7 |  | 42.9 µM | > 100 | 27.1 µM |  | 24.7 | 10.4 | 3.18 | 5.7 | 33 | 13.2 |  | 12 | 12
COc1ccc(C2=NN(c3ccccc3)C(c3cc4cc(Br)ccc4nc3Cl)C2)cc1 (configuration not stated) |  | > 25 | > 25 | > 25 | > 25 µM | > 25 | > 25 µM | > 25 |  |  |  |  |  |  |  |  | 
COc1ccc(-n2c(C)nc3ccc(NC4OCC(O)C(O)C4O)cc3c2=O)cc1 (configuration not stated) | > 100 | > 100 | > 100 | > 100 | 84.7 µM and > 100 µM | > 100 | 94.6 µM and 82.3 µM |  | > 100 |  |  |  |  |  |  |  | 
COP1(=O)NCc2ncccc2O1 (configuration not stated) | > 100 | > 100 | > 100 | > 100 | > 100 µM | > 100 | > 100 µM |  |  |  |  |  |  |  |  |  | 
Cc1ccc(/C(=C/C=C(C#N)C#N)Sc2cc(Cl)ccc2Cl)cc1 | 10 | 13.9 | 7.46 |  |  | 7.58 |  | 27.8 | 18.7 |  |  |  |  |  |  |  | 
C=C(C)[C@@]1(O)CCC[C@H]1NC(=O)OC(C)(C)C | > 100 | > 100 | > 100 | > 100 |  | > 100 | > 100 µM | > 100 | > 100 |  |  |  |  |  |  |  | 
